Laboratory results published in patent US10023565B2, “N,N′ substituted piperidinamine compounds, and preparation method and usage thereof” (Institute of Pharmacology and Toxicology Academy of …, priority 2013, dated 2018).

Legend:
BT474 = assay: Antitumor bioactivity evaluation, breast cancer cells (ATPlite); format: cell-based; settings: Homo sapiens, BT-474; for inhibition at 5 µM: test sample 5 μM, 72 hours, read-out: Inhibitory Rate % BT474
Outline: (§1)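 5000 cells/well, 24 h adhesion; cpd 5 μM final ± lapatinib 1 μM final; 72 h, 37 °C; ATPlite luminescence; survival % = sample RLU/control RLU ×100; 5 replicate wells.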

MDA-MB-361 = assay: as above; format: cell-based; settings: Homo sapiens, test sample 5 μM, 72 hours, read-out: Inhibitory Rate % MDA-MB-361
Outline: as §1

MDA-MB-453 = assay: as above; format: cell-based; settings: Homo sapiens, test sample 5 μM, 72 hours, read-out: Inhibitory Rate % MDA-MB-453
Outline: as §1

SK-BR3 = assay: as above; format: cell-based; settings: Homo sapiens, SK-BR-3; test sample 5 μM, 72 hours; read-out: Inhibitory Rate % SK-BR3
Outline: as §1

SK/Lap^R1.0 = assay: as above; format: cell-based; settings: Homo sapiens; test sample 5 μM, 72 hours; read-out: Inhibitory Rate % SKLap^R1.0
Outline: as §1

HepG2 = assay: Extended test against tumor cell lines (ATPlite); format: cell-based; settings: HepG2 (liver cancer), 72 hours
Outline: (§2)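 5000 cells/well, 24 h attach, 37 °C. Cpd 4, 1, 0.25, 0.063, 0.016 μM final, n=3, 72 h. ATPlite lum; % survival vs medium control RLU.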

[1] = test system: WI-38 (human embryonic lung fibroblast); assay: Extended test against tumor cell lines (ATPlite); format: cell-based; settings: WI-38 (normal cells), 72 hours
Outline: as §2

mice = assay: Acute toxicity experiment with single intragastric administration to mice; format: in vivo; settings: for Quantity of animals (survival/death): 14 d observation
Protocol: Acute toxicity experiment with single intragastric administration to mice of the compound of Example 36 according to the following method
(2) Preparation of test sample: a suitable amount of sample was weighed, and suspended in 0.5% CMC-Na, followed by vortex vibration till uniform. The resulting suspension was fully vibrated before administration.
According to the results of pre-experiment, experiment was conducted using Fixed-dose procedure. 70 mice were randomly divided into 7 groups, 10 mice each group, male and female in half. The administration doses were respectively: 1555, 1296, 1080, 900, 750, 625 and 520 mg/kg, and observation of the animals after administration continued for 14 days.
Observation was conducted once 5 min, 10 min, 20 min, 30 min, 1 h, 2 h, 4 h, 6 h, 8 h, 12 h, 18 h, 1 d, 2 d, 3 d, 7 d and 14 d respectively after administration, to record the animal death and toxic response.
LD50 was calculated by statistical analysis using SAS software.
2. Calculation of LD50 Using Bliss Method

Row | IC50 (BT474) | Structure (SMILES) | inhibition at 5 µM (BT474) | inhibition at 5 µM (MDA-MB-361) | inhibition at 5 µM (MDA-MB-453) | inhibition at 5 µM (SK-BR3) | inhibition at 5 µM (SK/Lap^R1.0) | Survival rate (HepG2; 0.016 μM) | Survival rate (HepG2; 0.063 μM) | Survival rate (HepG2; 0.25 μM) | Survival rate (HepG2; 1 μM) | Survival rate (HepG2; 4 μM) | Survival rate ([1]; 0.016 μM) | Survival rate ([1]; 0.063 μM) | Survival rate ([1]; 0.25 μM) | Survival rate ([1]; 1 μM) | Survival rate ([1]; 4 μM) | other results
1 | 1040 nM | CSc1nccc(N2CCC(N(C)Cc3c(F)cccc3Cl)CC2)n1 [Example 37, N-methyl-N-(2-fluoro-6-chlorobenzyl)-N-[1-(2-methylthiopyrimidin-4-yl)piperidin-4-yl]amine] | 75.5% | 55.9% | 84.2% | 78.9% | 78.3% | 97.1% | 92.3% | 78.1% | 45.7% | 5.6% | 98.6% | 99.2% | 95.5% | 89.7% | 65.6% | –
2 | 1990 nM | CSc1nccc(N2CCC(N(C)Cc3ccccc3Cl)CC2)n1 [Example 47, N-methyl-N-(2-chlorobenzyl)-N-[1-(2-methylthiopyrimidin-4-yl)piperidin-4-yl]amine] | 60.4% | 27.7% | 66.2% | 31.7% | 16.6% | 103.1% | 102.7% | 96% | 71.4% | 7.3% | 102.1% | 99.7% | 100.4% | 95.1% | 82.1% | –
3 | 780 nM | CSc1nccc(N2CCC(N(C)Cc3c(Cl)cccc3Cl)CC2)n1 [Example 49, N-methyl-N-(2,6-dichlorobenzyl)-N-[1-(2-methylthiopyrimidin-4-yl)piperidin-4-yl]amine] | 61.5% | 30.1% | 68.9% | 19.7% | 13.5% | 101.8% | 96.2% | 82.1% | 9.5% | 2.4% | 98.5% | 97.3% | 92.4% | 79.8% | 48.4% | –
4 | 1620 nM | CSc1nccc(N2CCC(N(C)Cc3ccc(Cl)cc3Cl)CC2)n1 [Example 40, N-methyl-N-(2,4-dichlorobenzyl)-N-[1-(2-methylthiopyrimidin-4-yl)piperidin-4-yl]amine] | 74.2% | 64.1% | 68.7% | 87.6% | 80.7% | 94.7% | 94.8% | 86.4% | 55.3% | 4.5% | 99.3% | 97.3% | 95.8% | 92.3% | 64.2% | –

Row | Structure (SMILES) | IC50 (BT474) | inhibition at 5 µM (BT474) | inhibition at 5 µM (MDA-MB-361) | inhibition at 5 µM (MDA-MB-453) | inhibition at 5 µM (SK-BR3) | inhibition at 5 µM (SK/Lap^R1.0) | Survival rate (HepG2; 0.016 μM) | Survival rate (HepG2; 0.063 μM) | Survival rate (HepG2; 0.25 μM) | Survival rate (HepG2; 1 μM) | Survival rate (HepG2; 4 μM) | Survival rate ([1]; 0.016 μM) | Survival rate ([1]; 0.063 μM) | Survival rate ([1]; 0.25 μM) | Survival rate ([1]; 1 μM) | Survival rate ([1]; 4 μM) | other results
5 | CSc1nccc(N2CCC(N(C)Cc3ccc(C#N)cc3)CC2)n1 [Example 36, N-methyl-N-(4-cyanobenzyl)-N-[1-(2-methylthiopyrimidin-4-yl)piperidin-4-yl]amine] | 1410 nM | 75.5% | 46.9% | 82.4% | 83.4% | 86.1% | 98.8% | 97% | 94.7% | 77.1% | 4.5% | 93.9% | 93.7% | 91.5% | 82.0% | 51.1% | Quantity of animals (survival/death) (mice; 520 mg/kg, Female): 5/0; Quantity of animals (survival/death) (mice; 520 mg/kg, Male): 5/0; Quantity of animals (survival/death) (mice; 625 mg/kg, Female): 5/0; Quantity of animals (survival/death) (mice; 625 mg/kg, Male): 4/1; Quantity of animals (survival/death) (mice; 750 mg/kg, Female): 2/3; Quantity of animals (survival/death) (mice; 750 mg/kg, Male): 4/1; Quantity of animals (survival/death) (mice; 900 mg/kg, Female): 2/3; Quantity of animals (survival/death) (mice; 900 mg/kg, Male): 3/2; Quantity of animals (survival/death) (mice; 1080 mg/kg, Female): 2/3; Quantity of animals (survival/death) (mice; 1080 mg/kg, Male): 0/5; Quantity of animals (survival/death) (mice; 1296 mg/kg, Female): 0/5; Quantity of animals (survival/death) (mice; 1296 mg/kg, Male): 1/4; first animal death, time after administration (mice; 1555 mg/kg dose group): 5 min; Quantity of animals (survival/death) (mice; 1555 mg/kg, Female): 0/5; Quantity of animals (survival/death) (mice; 1555 mg/kg, Male): 0/5; gross anatomical examination (mice; animals dead during or killed at end of the experiment): No obvious abnormality was found; survival of the dose group (mice; mouse, in vivo): all survived; clinical manifestations of animal poisoning (mice; single intragastric administration, 520-1555 mg/kg): muscle tremors, convulsions, eye closed, curled up into a ball, erected hair, reduced activity, loss of appetite; LD50 and 95% confidence limit (mice; single intragastric administration, mice, Bliss method, SAS): 869.0 (776.5-969.4) mg/kg
